Test results: article PMC11061835, “Elucidating the Mechanism of Metabolism of Cannabichromene by Human Cytochrome P450s” (Journal of Natural Products, 2024)
Where “and” joins values, the source holds several entries; their conditions need not be identical. Identical values can stand only once.

How the values were obtained:
CYP2C8 with CPR = target: T1, CYP2C8 with CPR (Homo sapiens, UniProt P10632); assay: NADPH activity assay, CYP2C8 with CPR; type: biochemical; conditions: CYP2C8, CBC 50 μM vs substrate-free
T1 construct: His-tag; made in house; host or cells: E. coli DH-5α with pTGro7 plasmid (CYP)
T1 sequence (P10632 1-490): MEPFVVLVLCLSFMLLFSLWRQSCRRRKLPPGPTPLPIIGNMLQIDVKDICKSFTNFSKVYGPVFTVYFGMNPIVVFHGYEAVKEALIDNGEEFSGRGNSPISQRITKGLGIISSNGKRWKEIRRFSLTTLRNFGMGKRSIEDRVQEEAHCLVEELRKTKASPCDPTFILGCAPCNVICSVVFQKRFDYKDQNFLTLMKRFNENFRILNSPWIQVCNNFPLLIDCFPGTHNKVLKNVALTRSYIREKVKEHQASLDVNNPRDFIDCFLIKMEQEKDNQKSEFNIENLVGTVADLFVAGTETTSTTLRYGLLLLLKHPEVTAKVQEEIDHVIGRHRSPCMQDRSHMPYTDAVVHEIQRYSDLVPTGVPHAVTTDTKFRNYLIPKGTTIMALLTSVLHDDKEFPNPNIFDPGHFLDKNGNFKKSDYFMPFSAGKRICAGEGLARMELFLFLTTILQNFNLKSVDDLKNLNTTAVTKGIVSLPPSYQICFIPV
T1 sequence (P16435 1-677 partner): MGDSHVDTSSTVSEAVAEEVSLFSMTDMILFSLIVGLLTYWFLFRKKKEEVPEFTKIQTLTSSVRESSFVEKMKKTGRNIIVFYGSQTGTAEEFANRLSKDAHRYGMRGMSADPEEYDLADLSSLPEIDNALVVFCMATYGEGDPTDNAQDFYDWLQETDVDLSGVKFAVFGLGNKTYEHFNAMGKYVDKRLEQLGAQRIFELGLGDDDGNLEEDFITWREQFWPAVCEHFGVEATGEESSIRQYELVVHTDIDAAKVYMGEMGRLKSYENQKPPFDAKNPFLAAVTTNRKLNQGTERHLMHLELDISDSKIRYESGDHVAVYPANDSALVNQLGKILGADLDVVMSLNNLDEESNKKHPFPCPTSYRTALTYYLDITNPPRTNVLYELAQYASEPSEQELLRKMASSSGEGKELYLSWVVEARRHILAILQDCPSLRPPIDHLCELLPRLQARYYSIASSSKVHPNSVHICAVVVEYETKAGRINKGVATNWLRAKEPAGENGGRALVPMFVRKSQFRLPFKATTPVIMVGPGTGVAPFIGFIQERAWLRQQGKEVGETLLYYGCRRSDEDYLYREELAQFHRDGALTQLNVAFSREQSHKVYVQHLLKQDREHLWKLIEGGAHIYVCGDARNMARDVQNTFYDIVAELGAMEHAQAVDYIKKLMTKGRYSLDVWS
Protocol: CYP-mediated NADPH oxidation was measured using kinetics mode in a Cary 300 UV–vis spectrometer (Agilent Technologies). 0.2 μM (final concentration) of CYP was taken in 0.1 M potassium phosphate buffer (pH 7.4) and incubated with 0.6 μM (final concentration) of CPR for 5 min with a reaction volume of 400 μL. The reaction was initiated with 200 μM of NADPH, and the absorption change was monitored over 10 min at 340 nm. The rate of NADPH consumption (or NADPH to NADP^+ conversion) was calculated by taking the molar extinction coefficient as 6.22 mM^–1 cm^–1 at 340 nm. To estimate the change in NADPH oxidation in the presence of CBC, both CYP and CPR were further incubated using CBC (final concentration 50 μM) for 5 min followed by measuring the change in absorbance at 340 nm as discussed earlier.

[1] = target: T2, CYP2J2 in the presence of CPR (Homo sapiens, UniProt P51589); assay: Spectroscopic titration, CYP2J2–CPR complex; type: binding
T2 construct: His-tag; made in house; host or cells: E. coli DH-5α with pTGro7 plasmid (CYP)
T2 sequence (P51589 1-502): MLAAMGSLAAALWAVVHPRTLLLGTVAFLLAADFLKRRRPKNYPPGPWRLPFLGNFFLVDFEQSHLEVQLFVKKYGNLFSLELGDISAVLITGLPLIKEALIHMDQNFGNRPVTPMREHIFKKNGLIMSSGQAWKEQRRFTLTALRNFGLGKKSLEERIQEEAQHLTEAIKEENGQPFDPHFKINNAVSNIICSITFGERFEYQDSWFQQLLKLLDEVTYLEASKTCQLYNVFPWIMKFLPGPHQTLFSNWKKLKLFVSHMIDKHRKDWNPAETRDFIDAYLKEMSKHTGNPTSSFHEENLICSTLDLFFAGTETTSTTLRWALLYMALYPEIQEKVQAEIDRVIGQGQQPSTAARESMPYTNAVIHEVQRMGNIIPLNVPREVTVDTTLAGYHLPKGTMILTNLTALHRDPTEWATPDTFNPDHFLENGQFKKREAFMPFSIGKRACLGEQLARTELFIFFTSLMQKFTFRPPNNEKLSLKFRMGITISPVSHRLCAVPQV
T2 sequence (P16435 1-677 partner): T1 sequence (P16435 1-677 partner)
Protocol: (§1) For CBC titration to CYP–CPR complex, initially CYPs were dissolved in 400 μL of 0.1 M phosphate buffer (pH = 7.4) keeping the concentration between […]. Following this 50 μL of CPR (50 μM stock) was added to both cuvettes, and the final concentration of both of the proteins was 5–6 μM. Both proteins were initially mixed and incubated for 5 min followed by titration with CBC in the same process as mentioned above. The substrate-bound spectra were then subtracted from substrate-free spectra, and the extent of binding was analyzed using Origin Pro 2020.

CYP2C8 = target: T3, CYP2C8 (Homo sapiens, UniProt P10632); assay: Spectroscopic titration (Soret shift), CYP2C8; type: binding; conditions: CYP2C8, absence of CPR
T3 construct: His-tag; made in house; host or cells: E. coli DH-5α with pTGro7 plasmid
T3 sequence (P10632 1-490): T1 sequence (P10632 1-490)
Protocol: CBC binding to various CYPs was determined by analyzing the Soret shift from ∼417 to ∼390 nm. CBC (stock 10 mM) was dissolved in ethanol and titrated with different CYPs at room temperature. Buffer-exchanged CYP2J2, CYP2D6, CYP3A4, and CYP2C8 (concentrations of proteins were kept between 4 and 5 μM) were dissolved in 0.1 M phosphate buffer (pH = 7.4), and initial spectra were recorded from 200 to 800 nm with a prominent peak at 417 nm. The concentration of CBC was varied from 0 to 100 μM keeping the final concentration of substrate in EtOH not more than 1% in cuvette. 0–4 μL of stock CBC was added using a Hamilton syringe in both the sample and blank cuvettes. The mixture was incubated for 5 min at 37 °C, and absorbance spectra were recorded using a Cary Bio 300 UV–vis spectrophotometer (Agilent Technologies, Santa Clara, CA). To eliminate the background absorbance, we derived the final spectra by […].

[2] = target: T4, CYP3A4 in the presence of CPR (Homo sapiens, UniProt P08684); assay: Spectroscopic titration, CYP3A4–CPR complex; type: binding
T4 construct: His-tag; made in house; host or cells: E. coli DH-5α with pTGro7 plasmid (CYP)
Protocol: as §1

[3] = target: T5, CYP2D6 in the presence of CPR (Homo sapiens, UniProt P10635); assay: Spectroscopic titration, CYP2D6–CPR complex; type: binding
T5 construct: His-tag; made in house; host or cells: E. coli DH-5α with pTGro7 plasmid (CYP)
Protocol: as §1

T5 sequence (P10635 whole entry, one chain of several): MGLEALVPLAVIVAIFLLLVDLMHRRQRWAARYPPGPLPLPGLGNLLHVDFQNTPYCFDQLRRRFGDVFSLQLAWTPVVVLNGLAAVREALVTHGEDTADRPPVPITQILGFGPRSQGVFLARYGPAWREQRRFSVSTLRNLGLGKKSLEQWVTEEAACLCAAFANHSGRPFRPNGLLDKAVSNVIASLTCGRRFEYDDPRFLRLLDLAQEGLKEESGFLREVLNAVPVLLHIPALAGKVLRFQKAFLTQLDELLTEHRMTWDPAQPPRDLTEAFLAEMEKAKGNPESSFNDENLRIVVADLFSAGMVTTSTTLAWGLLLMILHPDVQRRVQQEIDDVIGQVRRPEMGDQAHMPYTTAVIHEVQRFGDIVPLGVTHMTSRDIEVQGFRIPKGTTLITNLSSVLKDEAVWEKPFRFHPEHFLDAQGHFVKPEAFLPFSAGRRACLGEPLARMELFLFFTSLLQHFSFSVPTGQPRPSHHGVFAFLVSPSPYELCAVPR
T4 sequence (P08684 whole entry, one chain of several): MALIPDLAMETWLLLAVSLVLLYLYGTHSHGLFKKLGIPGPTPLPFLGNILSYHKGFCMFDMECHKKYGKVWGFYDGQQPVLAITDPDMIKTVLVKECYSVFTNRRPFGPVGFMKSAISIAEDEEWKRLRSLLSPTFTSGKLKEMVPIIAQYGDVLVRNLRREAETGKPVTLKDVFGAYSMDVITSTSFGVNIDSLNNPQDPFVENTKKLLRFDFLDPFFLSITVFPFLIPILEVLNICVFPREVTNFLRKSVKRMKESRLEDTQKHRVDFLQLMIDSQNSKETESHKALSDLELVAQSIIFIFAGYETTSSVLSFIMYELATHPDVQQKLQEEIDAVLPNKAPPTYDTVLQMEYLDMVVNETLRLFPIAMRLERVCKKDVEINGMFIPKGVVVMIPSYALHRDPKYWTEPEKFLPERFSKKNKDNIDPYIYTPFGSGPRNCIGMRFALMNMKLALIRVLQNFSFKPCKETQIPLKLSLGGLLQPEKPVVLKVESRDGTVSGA

CCCCCc1cc(O)c2c(c1)OC(C)(CCC=C(C)C)C=C2 (stereo not drawn) [CBC, Cannabichromene]
percentage increase of NADPH consumption in the presence of CBC (CYP2C8 with CPR): ~60%
ΔAmax (spin state change due to heme perturbation) [1]: 0.09 ± 0.00 and ~0.1
Kd ([1]; read-out: Kd(app)): 1.19 µM and < 10 µM and ~1 µM
ΔAmax (spin state change due to heme perturbation) (CYP2C8): 0.15 ± 0.00 and ~0.15
Kd (CYP2C8; read-out: Kd(app)): 38.1 µM and ~38 µM
ΔAmax (spin state change due to heme perturbation) [2]: 0.03 ± 0.00 and 0.03–0.04
Kd ([2]; read-out: Kd(app)): 1.66 µM and ~1.6 µM and < 10 µM
ΔAmax (spin state change due to heme perturbation) [3]: 0.04 ± 0.00 and 0.03–0.04
Kd ([3]; read-out: Kd(app)): 3.12 µM and < 10 µM and ~3 µM
